Assay results taken from patent publication US5463093A, “Palladium complexes and methods for using same in the treatment of tumors or Psoriasis” (priority 1993, dated 1995).
Entries after “also recorded” stand apart in the source; their conditions may differ.

Assays:
[1] = UV spectroscopy after air oxidation of the solution; format: physicochemical; conditions: ninety days of air oxidation of the solution; UV spectra
Description: There is no UV peak. FIGS. 2B and 2C show ultraviolet spectra of Pd-Lipoic Acid Complex (Poly-RC) with a concentration of 2×10^-6 M in FIG. 2B and 10^-6 M in FIG. 2C. FIGS. 2D and 2E show ultraviolet absorbance spectra of oxidized Poly RC after ninety days of air oxidation of the solution (experiment conducted Jun 11, 1993). In FIGS. 2D and 2E, the concentration is 0.00012 M. In FIG. 2D, the spectrum is ended at 400.0 nm and 0.542 A, and a reference peak is at 289.0 nm and 0.75 A. In FIG. 2E, the spectrum is ended at 550.0 nm and 0.036 A, and a reference peak is at 396.0 nm and 0.553 A. FIG. 2F illustrates the absorbance spectra of Pd-lipoic acid complexes at varying ratios of palladium to lipoic acid at a Pd concentration of 5×10^-5 M. The ratios are 1 Pd: 1 lipoic=n 1, 1 Pd: 2 lipoic=n 2, and 1 Pd: 3 lipoic=n 3. […] The reference peak of B12 is at 361.2 nm and 0.042 A and the reference peak of B12 Ac is at 358.6 nm and 0.044 A.
After ninety days of air oxidation of the Poly-RC solution, an ultraviolet spectra was again obtained on the Shimadzu UV spectrophotometer. In both instances, a 1.2×10^-4 μ solution was employed. […] FIG. 2E illustrates the visible range of the Poly RC, in which range an inflection is estimated as occurring at 396 nm. These spectra showing a shift from the fresh Poly RC solution are consistent with the view that Poly RC is a redox complex.

tumors = test: Compassionate IND studies in tumor patients; format: in vivo, human; conditions: for liquefaction of carcinomas, adenocarcinomas, melanomas and metastases / shrinkage of carcinomas, adenocarcinomas, melanomas and metastases: patients
Description: (§1) Data reporting therapeutic effects are best presented by independent institutional protocols. Compassionate Investigational New Drug studies in humans involving administration of the novel polynucleotide reductases were begun in November of 1992 and are presently ongoing.
However, the precise route of administration, dosage and frequency of administration is individualized for each patient and can vary over a wide range depending on the particular disease state being treated, the condition of the patient and the like.

DNA (CT) = test: Cyclic voltammetry of charge interactions with DNA; format: biochemical
Protocol: 16, 1993. […] 18, 1993. […] 30, 1993.
The structures of these complexes, as shown in the Examples, were also studied by Fourier transform-infrared spectroscopy (FTIR).
The working electrode used a smile mercury drop, the reference electrode was Ag/AgCl wire in KCl solution housed behind a porous Vycor frit and the counter electrode was Ag/AgCl wire. A reversing scan was performed from either 0 or -0.3 Volt to -1.0 Volts at 20 μA or 100 μA sensitivity and a scan rate of 100 mv/sec. Before the reductase sample was run, 9.0 ml of acetate buffer background electrolyte at pH 5.0 was purged for 8 minutes by vigorous bubbling of nitrogen. The addition of each sample was followed by two minutes of nitrogen purging.
In this example, 1.0 ml of a 5 mg/ml DNA solution was added to 250 μl of a 0.12μ Poly-RC solution. […] This scan was run from 0 to -1.0 volts at 20 μA sensitivity.
The amount of energy transferred is calculated from the shift in the voltage and current coordinates in terms of the Nernst relation. This interpretation of shifts in electro-potential curves follows the interpretations of electrochemistry literature, e.g., Maloy, "Factors Affecting the Shape of Current Potential Curves," I. Chem. Ed., 60(4):285-289 (April 1983); Rieger, Electrochemistry, Prentice Hall (1987); and Riley et al., Principles of Electroanalytical Methods, John Wiley (1987).
FIG. 6A was run from 0 to -1.0 volts at 100 μA sensitivity, while Rigure 6B was run from -0.3 to -1.0 volts at 20 μA sensitivity.
Both scans were run from -0.3 to -1.0 volts at 20 μA sensitivity. […] Biochem, 51(1 and 2):221 (August 1993).

[2] = test system: Brewer's yeast (Saccharomyces cerevisae) / Baker's yeast; test: Induction of new yeast form (cell morphology, phase microscopy); format: cell-based; conditions: Poly-R2 10^-7 M, 30 minutes at 28° C.
Protocol: Brewer's yeast (Saccharomyces cerevisae) was cultured in 2.0% malt extract and 2.0% sucrose.
The yeast was incubated for 30 minutes at 28° C. and examined under phase microscopy.

[3] = test system: metastatic lesions to the liver; conditions: patients with metastatic lesions to the liver
Description: as §1

## palladium-lipoic acid complex [Poly-RC]
[1]
  redox state after air oxidation: in the oxidative state
tumors
  liquefaction of carcinomas, adenocarcinomas, melanomas and metastases: developing non-hemorrhagic central liquefaction
  shrinkage of carcinomas, adenocarcinomas, melanomas and metastases: shrinking
DNA (CT); 250 μl of 0.12 M Poly-RC + 1.0 ml DNA 5 mg/ml, 0 to -1.0 volts, 20 μA
  charge interaction of Poly-RC with DNA (voltammetric wave): double peaked catalytic wave of Poly-RC was altered on the addition of DNA; also recorded: current had dropped and voltage had moved in the oxidative direction; also recorded: DNA oxidizes Poly-RC

## thiamine salt of a palladium-lipoic acid complex [Poly-R2]
[2]; FIG. 8B
  loss of lipid droplets during giantization of yeast cells: lipid droplets are lost from the cell; also recorded: lipid drops are lost from the cell
[2]; phase microscopy
  altered cell morphology of yeast cells: Large fiat cells were one kind of new variety; also recorded: altered cell morphology of yeast cells
tumors
  liquefaction of carcinomas, adenocarcinomas, melanomas and metastases: developing non-hemorrhagic central liquefaction
  shrinkage of carcinomas, adenocarcinomas, melanomas and metastases: shrinking
tumors; terminally ill patients, objective criteria
  reduction in tumor size: reduction in tumor size by objective criteria
tumors; terminally ill patients, subjective
  relief of symptoms caused by various cancers: subjective relief of symptoms
[3]
  enlargement of the liver: no longer palpable
  serum albumen levels: return to normal
DNA (CT); Poly-R2 compared with Poly-RC
  magnitude of voltammetric shifts with DNA: greater magnitude
DNA (CT); cyclic voltammetry
  reduction of DNA: can reduce both DNA and RNA
